Data: ChEMBL document CHEMBL3727358, “Inhibitors of inducible form of 6-phosphofructose-2-kinase” (2014)

Columns and labels:
[1] = target: T1, 6-phosphofructo-2-kinase/fructose-2,6-bisphosphatase 3 (Homo sapiens, UniProt Q16875); assay: Inhibition of iPFK2 (unknown origin) assessed as reduction in enzyme-mediated fructose-6-phosphate phosphorylation by measuring NADH absorbance pre-incubated for 10 mins before ATP/substrate addition followed by incubation for 1 hr by UV-Visible spectrometry based iPFK-2/PPI-PFK coupled enzyme assay
[2] = target: T1, 6-phosphofructo-2-kinase/fructose-2,6-bisphosphatase 3; assay: Inhibition of iPFK2 (unknown origin) assessed as reduction in enzyme-mediated fructose-6-phosphate phosphorylation by measuring ATP consumption incubated for 3 hrs by luciferase-luciferin-coupled chemiluminescence assay

T1 sequence (Q16875 whole entry): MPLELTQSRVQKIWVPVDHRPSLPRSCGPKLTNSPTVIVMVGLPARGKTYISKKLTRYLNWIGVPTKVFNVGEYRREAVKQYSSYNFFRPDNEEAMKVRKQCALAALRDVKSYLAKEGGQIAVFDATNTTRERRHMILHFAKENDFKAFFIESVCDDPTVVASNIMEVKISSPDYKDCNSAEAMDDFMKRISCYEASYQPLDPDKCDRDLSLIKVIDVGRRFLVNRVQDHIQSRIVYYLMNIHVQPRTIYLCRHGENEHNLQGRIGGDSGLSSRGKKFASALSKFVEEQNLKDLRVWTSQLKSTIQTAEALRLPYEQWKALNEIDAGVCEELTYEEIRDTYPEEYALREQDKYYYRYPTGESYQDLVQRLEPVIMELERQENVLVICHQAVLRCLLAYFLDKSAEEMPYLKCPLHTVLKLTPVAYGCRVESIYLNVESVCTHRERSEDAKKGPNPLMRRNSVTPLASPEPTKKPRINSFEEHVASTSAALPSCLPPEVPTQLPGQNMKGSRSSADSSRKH

| Compound | IC50 [1] | IC50 [2] |
| --- | --- | --- |
| COc1cccc(-c2cc(NC3CCCc4ccccc43)nc(C)n2)c1 (stereo not given) | – | > 1000 nM |
| COCC(C)Nc1cc(-c2ccc3ncsc3c2)nc(C)n1 (stereo not given) | – | > 1000 nM |
| Cc1nc(N[C@@H]2CCCc3ccccc32)cc(-c2ccc3[nH]ncc3c2)n1 | – | > 1000 nM |
| Cc1nc(N[C@@H]2CCCc3ccccc32)cc(-c2cccc(Cl)c2)n1 | – | 500 nM |
| Cc1nc(N[C@@H]2CCCc3ccccc32)cc(-c2cccc3cc[nH]c23)n1 | – | > 1000 nM |
| CCC(C)Nc1cc(-c2ccc3ncsc3c2)nc(C)n1 (stereo not given) | – | > 1000 nM |
| CCCCCNc1cc(-c2ccc3ncsc3c2)nc(C)n1 | – | > 1000 nM |
| Cc1nc(N[C@@H]2CCCc3ccccc32)cc(-c2cccc(OC(F)(F)F)c2)n1 | – | > 1000 nM |
| Cc1nc(N[C@@H]2CCCc3ccccc32)cc(-c2cccc3c2ccn3C)n1 | – | > 1000 nM |
| COCc1cccc(-c2cc(N[C@@H]3CCCc4ccccc43)nc(C)n2)c1 | – | > 1000 nM |
| Cc1nc(N[C@@H]2CCCc3ccccc32)cc(-c2cccc3[nH]ccc23)n1 | – | > 1000 nM |
| CCOC(=O)CC(Nc1cc(-c2cccc(OC)c2)nc(C)n1)c1cccc(OC)c1 (stereo not given) | – | > 1000 nM |
| Cc1nc(N[C@@H]2CCCc3ccccc32)cc(-c2ccc3c(c2)N(CCO)CC3)n1 | – | > 1000 nM |
| Cc1nc(N[C@@H]2CCCc3ccccc32)cc(-c2ccc3nc[nH]c3c2)n1 | – | > 1000 nM |
| CC(=O)N1CCOc2ccc(-c3cc(N[C@@H]4CCCc5ccccc54)nc(C)n3)cc21 | – | > 1000 nM |
| Cc1nc(NC2CCOc3ccc([N+](=O)[O-])cc32)cc(-c2ccc3ncsc3c2)n1 (stereo not given) | – | > 1000 nM |
| COC(=O)CNc1cccc(CNc2cc(-c3cccc(OC)c3)nc(C)n2)c1 | – | > 1000 nM |
| CNc1ccc(-c2cc(N[C@@H]3CCCc4ccccc43)nc(C)n2)cc1 | – | 500 nM |
| Cc1nc(NCCc2ccccn2)cc(-c2ccc3ncsc3c2)n1 | – | > 1000 nM |
| CC(=O)Nc1ccc2c(c1)C(Nc1cc(-c3ccc4ncsc4c3)nc(C)n1)CCO2 (stereo not given) | – | > 1000 nM |
| Cc1nc(NCCc2ccc(O)cc2)cc(-c2ccc3ncsc3c2)n1 | – | > 1000 nM |

| Compound | IC50 [1] | IC50 [2] |
| --- | --- | --- |
| Cc1nc(NCCC(C)C)cc(-c2ccc3ncsc3c2)n1 | – | 500 nM |
| CCOC(=O)CCNC(=O)CC(Nc1cc(-c2cccc(OC)c2)nc(C)n1)c1cccc(OC)c1 (stereo not given) | – | > 1000 nM |
| COC(=O)CN1CCc2ccc(-c3cc(N[C@@H]4CCCc5ccccc54)nc(C)n3)cc21 | – | > 1000 nM |
| CCCCCC(C)Nc1cc(-c2ccc3ncsc3c2)nc(C)n1 (stereo not given) | – | > 1000 nM |
| Cc1nc(N[C@@H]2CCCc3ccccc32)cc(-c2ccc3c(c2)NCC3)n1 | – | > 1000 nM |
| COc1cccc(-c2cc(NC(CC(=O)NCCCN(C)C)c3cccc(OC)c3)nc(C)n2)c1 (stereo not given) | – | > 1000 nM |
| COc1ccc(F)c(CNc2cc(-c3ccc4ncsc4c3)nc(C)n2)c1Cl | – | > 1000 nM |
| COC(=O)CN(C(=O)OC(C)(C)C)S(=O)(=O)c1cccc(C(C)Nc2cc(-c3cccc(OC)c3)nc(C)n2)c1 (stereo not given) | – | > 1000 nM |
| Cc1nc(NC2CC(C)(C)Oc3ccccc32)cc(-c2ccc3ncsc3c2)n1 (stereo not given) | – | 500 nM |
| CCn1cnc2ccc(-c3cc(N[C@@H]4CCCc5ccccc54)nc(C)n3)cc21 | – | > 1000 nM |
| Cc1nc(N[C@@H]2CCCc3ccccc32)cc(-c2ccc3c(ccn3C)c2)n1 | – | 500 nM |
| Cc1nc(N[C@@H]2CCCc3ccccc32)cc(-c2ccc3c(c2)NCCO3)n1 | – | 500 nM |
| COc1cccc(-c2cc(N[C@H]3CCCc4ccccc43)nc(C)n2)c1 | – | > 1000 nM |
| Cc1nc(N[C@@H]2CCCc3ccccc32)cc(-c2ccc3c(c2)OC(F)(F)O3)n1 | – | > 1000 nM |
| Cc1nc(NCCC2=CCCCC2)cc(-c2ccc3ncsc3c2)n1 | – | 500 nM |
| Cc1nc(N[C@H]2CCCc3ccccc32)cc(-c2ccc3ncsc3c2)n1 | – | 500 nM |
| Cc1nc(N[C@@H]2CCCc3ccccc32)cc(-c2ccc3c(c2)N(CCO)CCO3)n1 | – | > 1000 nM |
| Cc1nc(N[C@@H]2CCCc3ccccc32)cc(-c2ccc3cn[nH]c3c2)n1 | – | > 1000 nM |
| Cc1nc(N[C@@H]2CCCc3ccccc32)cc(-c2ccc3occ(CC(=O)NCCO)c3c2)n1 | – | > 1000 nM |
| Cc1nc(N[C@@H](C)C(C)(C)C)cc(-c2ccc3ncsc3c2)n1 | – | > 1000 nM |

Now from value to molecule:

| IC50 [1] | IC50 [2] | Compound |
| --- | --- | --- |
| 500 nM | – | Cc1nc(NC(C)c2cccc(OCC#N)c2)cc(-c2ccc3ncsc3c2)n1 (stereo not given) |
| – | > 1000 nM | COc1cccc([C@H](C)Nc2cc(-c3ccc4ncoc4c3)nc(C)n2)c1 |
| – | > 1000 nM | COc1cccc([C@H](C)Nc2cc(-c3ccc4ncn(C)c4c3)nc(C)n2)c1 |
| – | > 1000 nM | COc1cccc(-c2cc(NC(C)c3cccc(S(=O)(=O)NCC(=O)O)c3)nc(C)n2)c1 (stereo not given) |
| – | > 1000 nM | COc1cccc([C@H](C)Nc2cc(-c3cc(OC)c(OC)c(OC)c3)nc(C)n2)c1 |
| – | > 1000 nM | CCOC(=O)Cc1coc2ccc(-c3cc(N[C@@H]4CCCc5ccccc54)nc(C)n3)cc12 |
| – | > 1000 nM | COc1cccc([C@H](C)Nc2cc(-c3ccccc3F)nc(C)n2)c1 |
| – | > 1000 nM | Cc1nc(NC(C)c2cccc(OCc3ccccc3)c2)cc(-c2ccc3ncsc3c2)n1 (stereo not given) |
| – | > 1000 nM | COc1cccc([C@@H](C)Nc2cc(-c3ccc4ncsc4c3)nc(C)n2)c1 |
| – | 500 nM | Cc1nc(NC(C)c2cccc(OCc3cccnc3)c2)cc(-c2ccc3ncsc3c2)n1 (stereo not given) |
| – | > 1000 nM | COc1cccc(-c2cc(NC(CCO)c3cccc(OC)c3)nc(C)n2)c1 (stereo not given) |
| – | 500 nM | Cc1nc(NC(C)c2cccc(-c3cnn(C)c3)c2)cc(-c2ccc3c(c2)N(C)CCO3)n1 (stereo not given) |
| > 1000 nM | – | Cc1nc(NC(C)c2cccc(OCC(=O)N3CCC3)c2)cc(-c2ccc3ncsc3c2)n1 (stereo not given) |
| – | > 1000 nM | COc1cccc([C@H](C)Nc2cc(-c3cc(OC)ccc3Cl)nc(C)n2)c1 |
| – | > 1000 nM | Cc1nc(NC(C)c2cccc(-c3cnn(C)c3)c2)cc(-c2ccc3c(c2)OCCO3)n1 (stereo not given) |
| – | > 1000 nM | Cc1nc(N[C@@H](C)c2cccc(-c3cccn3C)c2)cc(-c2ccc3ncsc3c2)n1 |
| – | > 1000 nM | COc1cccc([C@H](C)Nc2cc(-c3cccc(N(C)C)c3)nc(C)n2)c1 |
| – | > 1000 nM | COc1cccc([C@H](C)Nc2cc(-c3ccc4cc[nH]c4c3)nc(C)n2)c1 |
| – | > 1000 nM | COc1cccc(-c2cc(NC(C)c3cccc(NCC(=O)O)c3)nc(C)n2)c1 (stereo not given) |
| 500 nM | – | Cc1nc(NC(C)c2cccc(S(N)(=O)=O)c2)cc(-c2ccc3ncsc3c2)n1 (stereo not given) |

| IC50 [1] | IC50 [2] | Compound |
| --- | --- | --- |
| – | 500 nM | Cc1nc(NC(C)c2cccc(OCc3csc(C)n3)c2)cc(-c2ccc3ncsc3c2)n1 (stereo not given) |
| > 1000 nM | – | Cc1nc(NC(C)c2cccc(OCC(=O)N3CCCC3)c2)cc(-c2ccc3ncsc3c2)n1 (stereo not given) |
| – | 500 nM | Cc1nc(NC(C)c2cccc(-c3ccoc3)c2)cc(-c2ccc3occ(C)c3c2)n1 (stereo not given) |
| – | 500 nM | Cc1nc(N[C@@H](C)c2cccc(-c3cc[nH]n3)c2)cc(-c2ccc3ncsc3c2)n1 |
| – | 500 nM | Cc1nc(NC(C)c2cccc(-c3ccc(F)nc3C)c2)cc(-c2ccc3ncsc3c2)n1 (stereo not given) |
| – | 500 nM | CCc1ccc(-c2cc(NC(C)c3cccc(-c4cnn(C)c4)c3)nc(C)n2)cc1 (stereo not given) |
| – | 500 nM | Cc1nc(NC(C)c2cccc(-c3cnn(C)c3)c2)cc(-c2cccc(O)c2)n1 (stereo not given) |
| – | > 1000 nM | Cc1nc(NC(C)c2cccc(-c3ccsc3)c2)cc(-c2ccc3occ(C)c3c2)n1 (stereo not given) |
| – | > 1000 nM | COc1cccc([C@H](C)Nc2cc(-c3ccc(F)cc3)nc(C)n2)c1 |
| – | > 1000 nM | COc1cccc([C@H](C)Nc2cc(-c3cccc4[nH]ccc34)nc(C)n2)c1 |
| – | 500 nM | Cc1nc(NC(C)c2cccc(OCC(=O)NCCN(C)C)c2)cc(-c2ccc3ncsc3c2)n1 (stereo not given) |
| – | > 1000 nM | CCc1coc2ccc(-c3cc(NC(C)c4cccc(-c5cnn(C)c5)c4)nc(C)n3)cc12 (stereo not given) |
| – | > 1000 nM | COc1cccc([C@H](C)Nc2cc(-c3ccc(N(C)C)cc3)nc(C)n2)c1 |
| > 1000 nM | – | Cc1nc(NC(C)c2cc(O)ccc2F)cc(-c2ccc3ncsc3c2)n1 (stereo not given) |
| – | > 1000 nM | CCC(Nc1cc(-c2cccc(OC)c2)nc(C)n1)c1cccc(OC)c1 (stereo not given) |
| – | 500 nM | Cc1nc(NC(C)c2cccc(OCCF)c2)cc(-c2ccc3ncsc3c2)n1 (stereo not given) |
| – | 500 nM | COc1cccc([C@H](C)Nc2cc(-c3cccc(Cl)c3)nc(C)n2)c1 |
| – | 500 nM | Cc1nc(NC(C)c2cccc(OCCCC(=O)N(C)C)c2)cc(-c2ccc3ncsc3c2)n1 (stereo not given) |
| – | > 1000 nM | COc1cccc([C@@H](C)Nc2cc(-c3ccc4occ(C)c4c3)nc(C)n2)c1 |
| – | 500 nM | Cc1nc(NC(C)c2cccc(N3CCOCC3)c2)cc(-c2ccc3ncsc3c2)n1 (stereo not given) |

| IC50 [1] | IC50 [2] | Compound |
| --- | --- | --- |
| – | > 1000 nM | Cc1nc(NC(C)c2cccc(OCCn3cccc3)c2)cc(-c2ccc3ncsc3c2)n1 (stereo not given) |
| 500 nM | – | Cc1nc(NC(C)c2cccc(OCC(=O)N3CC3C)c2)cc(-c2ccc3ncsc3c2)n1 (stereo not given) |
| – | 500 nM | Cc1nc(NC(C)c2cccc(-c3cnn(C)c3)c2)cc(-c2ccc3c(c2)CCO3)n1 (stereo not given) |
| 500 nM | – | Cc1nc(NC(C)c2cccc(OCC(=O)N(C)C)c2)cc(-c2ccc3ncsc3c2)n1 (stereo not given) |
| – | > 1000 nM | Cc1nc(N[C@@H](C)c2cccc(-c3ccccc3)c2)cc(-c2ccc3ncsc3c2)n1 |
| > 1000 nM | – | Cc1cc(COc2cccc([C@@H](C)Nc3cc(-c4ccc5ncsc5c4)nc(C)n3)c2)n(C)n1 |
| – | > 1000 nM | COc1cccc(C(CCC#N)Nc2cc(-c3ccc4ncsc4c3)nc(C)n2)c1 (stereo not given) |
| – | 500 nM | Cc1nc(NC(C)c2cccc(Br)c2)cc(-c2ccc3ncsc3c2)n1 (stereo not given) |
| – | > 1000 nM | COc1cccc([C@H](C)Nc2cc(-c3cccc4cc[nH]c34)nc(C)n2)c1 |
| – | > 1000 nM | COc1cccc([C@H](C)Nc2cc(-c3ccc4[nH]ncc4c3)nc(C)n2)c1 |
| – | 500 nM | Cc1nc(NC(C)c2cccc(OCCCN(C)C)c2)cc(-c2ccc3ncsc3c2)n1 (stereo not given) |
| 500 nM | – | Cc1nc(NC(C)c2cccc(OCC(=O)N3CCCCC3)c2)cc(-c2ccc3ncsc3c2)n1 (stereo not given) |
| – | 500 nM | Cc1nc(NC(C)c2cccc(OCc3ccn(C)n3)c2)cc(-c2ccc3occc3c2)n1 (stereo not given) |
| – | 500 nM | Cc1nc(N[C@@H](C)c2cccc(-c3ccccc3)c2)cc(-c2ccc3occ(C)c3c2)n1 |
| – | 500 nM | Cc1nc(NC(C)c2cccc(OCC(O)CF)c2)cc(-c2ccc3ncsc3c2)n1 (stereo not given) |
| – | > 1000 nM | COc1cccc(-c2cc(Nc3cccc4ccccc34)nc(C)n2)c1 |
| – | > 1000 nM | CCCOc1cccc(C(C)Nc2cc(-c3ccc4ncsc4c3)nc(C)n2)c1 (stereo not given) |
| – | > 1000 nM | COc1cccc([C@H](C)Nc2cc(-c3ccccc3C)nc(C)n2)c1 |
| – | > 1000 nM | COc1cccc([C@H](C)Nc2cc(-c3ccccc3Cl)nc(C)n2)c1 |
